What all share (format): biochemical
For test [1], the target named is Jak2 (a.a. 828-1132) (Homo sapiens (Human), UniProt O60674). Nature of the test: In vitro JAK kinase assay (HTRF, phosphorylation of a biotinylated peptide), JAK2. Particulars: measured at 1 mM ATP. An outline of the steps: (§1)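 N-terminally His-tagged catalytic domains, baculovirus-expressed in insect cells and purified, were used as enzyme. Reactions ran 1 hr at room temperature and were stopped with a mix of 45 mM EDTA, 300 nM SA-APC and 6 nM Eu-Py20. The HTRF signal was read after 40 min of antibody binding.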
(TR-FRET usually uses a lanthanide donor and a delayed reading to cut background.)

Test [2] deals with human JAK1 (a.a. 837-1142). Nature of the test: In vitro JAK kinase assay (HTRF, phosphorylation of a biotinylated peptide), JAK1. Particulars: ratio of JAK2 IC50 to JAK1 IC50, measured at 1 mM ATP. An outline of the steps:
as §1

In test [3] the target is human JAK1 (a.a. 837-1142) (Homo sapiens, UniProt P23458). The test is described as above. Particulars: measured at 1 mM ATP. An outline of the steps:
as §1

Experimental findings from patent US9999619B2, “Piperidin-4-yl azetidine derivatives as JAK1 inhibitors” (Incyte Corporation, priority 2010, dated 2018) are described below.

Each structure is given as a SMILES string. Where only a bound is given, the exact number is not on record here.

Chain of Jak2 (a.a. 828-1132) (O60674 828-1132): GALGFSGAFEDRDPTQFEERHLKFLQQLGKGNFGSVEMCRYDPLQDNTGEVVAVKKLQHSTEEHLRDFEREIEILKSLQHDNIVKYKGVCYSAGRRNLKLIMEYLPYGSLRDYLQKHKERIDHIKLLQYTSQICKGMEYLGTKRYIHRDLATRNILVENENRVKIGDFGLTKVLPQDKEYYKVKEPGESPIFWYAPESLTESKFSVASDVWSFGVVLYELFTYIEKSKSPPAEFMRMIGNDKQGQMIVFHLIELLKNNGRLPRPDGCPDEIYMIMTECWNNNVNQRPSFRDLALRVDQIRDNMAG

As to `N#CCC1(n2cc(-c3ncnc4[nH]ccc34)cn2)CN(C2CCN(C(=O)c3ccc(C(F)(F)F)c(F)c3)CC2)C1` [Example 52, {1-{1-[3-fluoro-4-(trifluoromethyl)benzoyl]piperidin-4-yl}-3-[4-(7H-pyrrolo[2,3-d]pyrimidin-4-yl)-1H-pyrazol-1-yl]azetidin-3-yl}acetonitrile], the 50% inhibitory concentration (IC50) (usually the concentration that inhibits the measured activity by half) is 50 to 100 nM in test [1] and 5 to 20 nM in test [3]. In addition, the “IC50 Ratio JAK2/JAK1” value in test [2] is given as 4.4.

Regarding `CN(C)c1ccc(CN2CCC(N3CC(CC#N)(n4cc(-c5ncnc6[nH]ccc56)cn4)C3)CC2)c(F)c1C#N` [Example 209, 3-[(4-{3-(Cyanomethyl)-3-[4-(7H-pyrrolo[2,3-d]pyrimidin-4-yl)-1H-pyrazol-1-yl]azetidin-1-yl}piperidin-1-yl)methyl]-6-(dimethylamino)-2-fluorobenzonitrile], the results for the IC50 in test [1] and in test [3] were 10 to 50 nM and no more than 5 nM, respectively. Besides, the “IC50 Ratio JAK2/JAK1” value in test [2] came to 19.0.

On to `N#CCC1(n2cc(-c3ncnc4[nH]ccc34)cn2)CN(C2CCN(S(=O)(=O)c3ccccc3C#N)CC2)C1` [Example 247, 2-[(4-{3-(cyanomethyl)-3-[4-(7H-pyrrolo[2,3-d]pyrimidin-4-yl)-1H-pyrazol-1-yl]azetidin-1-yl}piperidin-1-yl)sulfonyl]benzonitrile], for which the IC50 in test [1] is no more than 10 nM; in test [3], no more than 5 nM. The “IC50 Ratio JAK2/JAK1” value in test [2] is reported as 5.1.

On to `CN(C)c1ccc(S(=O)(=O)N2CCC(N3CC(CC#N)(n4cc(-c5ncnc6[nH]ccc56)cn4)C3)CC2)cc1C#N` [Example 250, 5-[(4-{3-(cyanomethyl)-3-[4-(7H-pyrrolo[2,3-d]pyrimidin-4-yl)-1H-pyrazol-1-yl]azetidin-1-yl}piperidin-1-yl)sulfonyl]-2-(dimethylamino)benzonitrile], for which the IC50 in test [1] was 10 to 50 nM; in test [3], no more than 5 nM. Further, the “IC50 Ratio JAK2/JAK1” value in test [2] amounted to 4.7.

In the case of `CS(=O)(=O)N1CCC(N2CC(CC#N)(n3ccc(-c4ncnc5[nH]ccc45)c3)C2)CC1` [Example 348, {1-[1-(Methylsulfonyl)piperidin-4-yl]-3-[3-(7H-pyrrolo[2,3-d]pyrimidin-4-yl)-1H-pyrrol-1-yl]azetidin-3-yl}acetonitrile], the half-inhibitory concentration (IC50) in test [1] was 10 to 50 nM; in test [3] it was no more than 5 nM. In test [2], the “IC50 Ratio JAK2/JAK1” value is recorded as 3.2.
